The results in this text go back to patent publication US20130085182A1, “SODIUM 2-MERCAPTOETHANE SULFONATE FOR USE IN THE TREATMENT OF LUMBAR PAIN” (UNIVERSITA' CAMPUS BIO-MEDICO DI ROMA, priority 2010, published 2013).

Structures are written as SMILES.

What all share (assay type): in vivo, human
Assay [1] relates to patients suffering from FBSS (lumbar pain). As to the kind of experiment: Clinical study: pain evaluation by Numeric Rating Scales (NRS) after peridural infiltration. As to conditions: 11 FBSS patients, epidural 1 ml of 50 or 100 mg/ml, +1 week. The source says: 11 patients (7 males and 4 females), of ages ranging between 48 and 78 years, and suffering from FBSS, were studied (according to the operative diagram in FIG. 1) for a 9-month period. As criteria for inclusion in the treatment protocol were considered: • failed back surgery syndrome (FBSS) • lumbar pain present for >3 months • absence of improvement of pain with administration of oral pharmacological analgesics/opioids-based therapy; • non-eligibility for lumbar revision surgery treatment. • patients refusing treatment; • carriers of infections localized at the level of the infiltration site; • undergoing systemic infective processes; • coagulation alterations. After having been evaluated under the clinical instrumental standpoint, the patient was subjected to infiltrative treatment upon coagulation testing and replacement of oral anticoagulant therapy (possibly taken by the patient), with low molecular weight heparin. Infiltration was conducted in Day Surgery regimen, inviting the patient to have it on an empty stomach. […] The drug at issue, sodium 2-mercaptoethansulfonate, was contained in an ampoule with a 10% concentration; for each infiltration, 1 ml was collected and the concentration used was of 50 mg/ml in some cases and of 100 mg/ml in other cases. The entire infiltration procedure required 10-15 min. Of the 11 patients, 2 had already undergone 3 surgical interventions to the lumbar rachis, other 2 had undergone 2 interventions, and 7 had undergone 1 intervention. […] In particular, we asked to assign a value (comprised between 0 and 10) to pain intensity in a standing position, in horizontal posture, and while sitting; evaluation of the 3 parameters helped us in pain classification, and was aimed at determining musculoskeletal and gravity activation at different instants and the quantitative impact on pain intensity caused by the assuming of the different positions. […] To the first answer a score equal to 0 was assigned, to the second one equal to 1, and so on until the sixth answer that would be equal to 5. the score is calculated as follows: TOTAL SCORE/(5×9)×100.

Assay [2] shares this test system. As to the kind of experiment: Clinical study: lumbar rachis functionality by Oswestry Disability Index (ODI). To be noted: 11 FBSS patients; epidural 1 ml of 50 or 100 mg/ml; +1 week; before the procedure 52.18%; P=0.05. An excerpt:
11 patients (7 males and 4 females), of ages ranging between 48 and 78 years, and suffering from FBSS, were studied (according to the operative diagram in FIG. 1) for a 9-month period. As criteria for inclusion in the treatment protocol were considered: • failed back surgery syndrome (FBSS) • lumbar pain present for >3 months • absence of improvement of pain with administration of oral pharmacological analgesics/opioids-based therapy; • non-eligibility for lumbar revision surgery treatment. • patients refusing treatment; • carriers of infections localized at the level of the infiltration site; • undergoing systemic infective processes; • coagulation alterations. After having been evaluated under the clinical instrumental standpoint, the patient was subjected to infiltrative treatment upon coagulation testing and replacement of oral anticoagulant therapy (possibly taken by the patient), with low molecular weight heparin. […] In particular, we asked to assign a value (comprised between 0 and 10) to pain intensity in a standing position, in horizontal posture, and while sitting; evaluation of the 3 parameters helped us in pain classification, and was aimed at determining musculoskeletal and gravity activation at different instants and the quantitative impact on pain intensity caused by the assuming of the different positions. […]

The test system is the same in assay [3]. The experiment in a line: Clinical study: functional improvement by Odom's criteria. As to conditions: out of 11 FBSS patients; after epidural infiltration. The source says: 11 patients (7 males and 4 females), of ages ranging between 48 and 78 years, and suffering from FBSS, were studied (according to the operative diagram in FIG. 1) for a 9-month period. As criteria for inclusion in the treatment protocol were considered: • failed back surgery syndrome (FBSS) • lumbar pain present for >3 months • absence of improvement of pain with administration of oral pharmacological analgesics/opioids-based therapy; • non-eligibility for lumbar revision surgery treatment. • patients refusing treatment; • carriers of infections localized at the level of the infiltration site; • undergoing systemic infective processes; • coagulation alterations. After having been evaluated under the clinical instrumental standpoint, the patient was subjected to infiltrative treatment upon coagulation testing and replacement of oral anticoagulant therapy (possibly taken by the patient), with low molecular weight heparin. Infiltration was conducted in Day Surgery regimen, inviting the patient to have it on an empty stomach. […] The drug at issue, sodium 2-mercaptoethansulfonate, was contained in an ampoule with a 10% concentration; for each infiltration, 1 ml was collected and the concentration used was of 50 mg/ml in some cases and of 100 mg/ml in other cases. The entire infiltration procedure required 10-15 min. Of the 11 patients, 2 had already undergone 3 surgical interventions to the lumbar rachis, other 2 had undergone 2 interventions, and 7 had undergone 1 intervention. In particular, 4 had undergone an herniectomy, 2 an hemilaminectomy, 2 an herniectomy plus an hemilaminectomy and 3 a vertebral stabilization intervention. The levels involved were comprised between L1 and S1, with an extension range of 2 to 5 levels. Each patient was subjected, on average, to 2 (range comprised between 1 and 4) peridural infiltrations of sodium 2 mercaptoethane sulfonate (FIG. 2).

For `O=S(=O)([O-])CCS.[Na+]` [sodium 2-mercaptoethane sulfonate, Sodium 2-mercaptoethane sulfonate], in assay [1] (on average 2 infiltrations, pre-procedure mean 7.0, P=0.002), the “mean pain NRS (0-10) in a sitting position following the procedure” value was 5.55. Further, in assay [1] (pre-procedure mean 6.64, P=0.001), the “mean pain NRS (0-10) in a horizontal position following the procedure” value turned out to be 4.82. In assay [1] (pre-procedure mean 7.36, P=0.01), the “mean pain NRS (0-10) standing following the procedure” value is given as 5.73. In addition, in assay [2], the “Oswestry Disability Index (ODI), average after the procedure” value turned out to be 41.64%. Also, in assay [3], the “Odom's criteria: number of patients with Excellent result” value is 0 patients, the “Odom's criteria: number of patients with Fair result” value is given as 4 patients, the “Odom's criteria: number of patients with Good result” value is 7 patients and the “Odom's criteria: number of patients with Poor result” value is listed as 0 patients. Also, in assay [3], the “Odom's criteria: share of patients with Fair result” value is reported as 36.4% and the “Odom's criteria: share of patients with Good result” value was 63.6%.
